Source: PubChem BioAssay (NCI)
Values joined by “and” are separate entries in the source; they are usually repeats but may differ in a detail not shown here. Equal values may be shown once.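 Five concentrations, 48 hours, 96-well plates. The concentration for 50% growth inhibition is given as GI50. TGI marks complete inhibition of growth.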

Experiments:
Assay in all cases: DTP human tumour cell line panel, 48 h
[1] = test system: CCRF-CEM leukemia
[2] = test system: UO-31 renal
[3] = test system: HCT-15 colon
[4] = test system: MALME-3M melanoma
[5] = test system: MOLT-4 leukemia
[6] = test system: HCC-2998 colon
[7] = test system: HOP-62 NSCLC
[8] = test system: HL-60(TB) leukemia
[9] = test system: RPMI-8226 leukemia
[10] = test system: MDA-MB-231 breast

SMILES	GI50 [1]	TGI [1]	GI50 [2]	TGI [2]	GI50 [3]	TGI [3]	GI50 [4]	TGI [4]	GI50 [5]	TGI [5]	GI50 [6]	TGI [6]	GI50 [7]	TGI [7]	GI50 [8]	TGI [8]	GI50 [9]	TGI [9]	GI50 [10]	TGI [10]
COC(=O)CNC(=O)[C@@H](OC)[C@@H]1Cc2cc3cc(OC4CC(OC5CC(O)C(O)C(C)O5)C(O)C(C)O4)c(C)c(O)c3c(O)c2C(=O)[C@H]1OC1CC(OC2CC(OC3CC(C)(O)C(O)C(C)O3)C(O)C(C)O2)C(O)C(C)O1 (some centres not stated)	0.186 µM	> 50 µM	0.45 µM	12.8 µM	1.12 µM	> 50 µM	0.123 µM	1.03 µM	0.198 µM	3.35 µM	0.207 µM	1.7 µM	0.0908 µM	> 50 µM	1.08 µM	49.1 µM	0.116 µM	1.38 µM	0.267 µM	> 50 µM
NC(C(=O)[O-])C(=O)[O-].NC1CCCCC1N.[Pt+4]	–	–	52.7 µM	> 100 µM	4.41 µM	> 100 µM	0.294 µM	2.92 µM	6.42 µM	> 100 µM	–	–	8.45 µM	> 100 µM	5.28 µM	> 100 µM	0.957 µM	19.2 µM	31.8 µM	> 100 µM
COc1cc(Nc2nc(N[C@H]3CCCC[C@@H]3N)nc3cc[nH]c(=O)c23)cc(OC)c1	1.39 µM	11.8 µM	6.72 µM	21.5 µM	3.97 µM	18.3 µM	2.2 µM	22.5 µM	1.19 µM	11.4 µM	1.7 µM	11.5 µM	3.21 µM	20.8 µM	0.47 µM	3.8 µM	2.18 µM	12.1 µM	1.99 µM	9.35 µM
CN(CCOc1ccc(C#N)cc1)CCOc1ccc(C#N)cc1	–	–	18.7 µM	> 100 µM	25.4 µM	> 100 µM	> 100 µM	> 100 µM	15.1 µM	68.7 µM	> 100 µM	> 100 µM	> 100 µM	> 100 µM	20.7 µM	> 100 µM	7.39 µM	> 100 µM	> 100 µM	> 100 µM
Cn1ccnc1C(=O)/C=C/c1ccc(CC(=O)Nc2ccccc2)cc1	2.37 µM	> 25 µM	2.77 µM	5.86 µM	1.25 µM	8.77 µM	5.93 µM	22 µM	4.3 µM	> 25 µM	4.42 µM	8.96 µM	3.75 µM	20.8 µM	1.57 µM	9.35 µM	1.45 µM	9.7 µM	2.37 µM	9.61 µM
CN(C)c1ccc2cc(-c3ccccc3F)c(N)nc2c1	2.04 µM	43.7 µM	3.16 µM	16.5 µM	0.469 µM	13.2 µM	1.71 µM	15.9 µM	–	–	3.18 µM	17.6 µM	1.68 µM	12.7 µM	0.419 µM	9.36 µM	2.83 µM	17.7 µM	3.71 µM	19.6 µM
CCN(Cc1ccccc1OC)c1ccc(CO)c(Cl)c1	19 µM	60.3 µM	11.5 µM	24.7 µM	7.11 µM	23.6 µM	12.9 µM	27.5 µM	18.1 µM	46.2 µM	10.7 µM	24.5 µM	3.16 µM	16.4 µM	11.8 µM	34.9 µM	2.67 µM	21.5 µM	11.1 µM	24.9 µM
Fc1cccc(COc2ccc(Nc3ncnc4cc(-c5ccc[nH]5)sc34)cc2Cl)c1	0.44 µM	> 25 µM	0.245 µM	2.52 µM	0.264 µM	> 13 µM	2.65 µM	14.6 µM	2.59 µM	> 25 µM	0.246 µM	19.2 µM	3.01 µM	8.52 µM	0.354 µM	3.22 µM	0.133 µM	> 15.9 µM	0.734 µM	> 15.7 µM
O=C1/C(=C/c2ccc(O)cc2)COc2ccc(-c3ccccc3)cc21	0.237 µM	–	4.64 µM	23.4 µM	2.89 µM	12.4 µM	8.38 µM	30.6 µM	1.62 µM	> 32.5 µM	4.08 µM	11.2 µM	19.3 µM	36.4 µM	0.465 µM	> 38.2 µM	1.4 µM	7.68 µM	8.25 µM	27.3 µM
CC1C(=O)C(C)C(c2ccccc2)N(N=O)C1c1ccccc1 (configuration not stated)	–	> 1000 µM	268 µM	> 829 µM	> 1000 µM	> 1000 µM	–	> 516 µM	–	> 1000 µM	> 1000 µM	> 1000 µM	111 µM	> 78.3 µM and 360 µM	–	> 1000 µM	–	> 1000 µM	–	250 µM
c1cnc2[nH]cc(-c3csc(-c4cn(CCCCN5CCOCC5)c5ccccc45)n3)c2c1	1.98 µM	4.03 µM	1.15 µM	2.53 µM	1.81 µM	3.51 µM	1.32 µM	2.96 µM	1.82 µM	3.67 µM	1.74 µM	3.26 µM	1.7 µM	3.7 µM	1.96 µM	3.92 µM	1.83 µM	4.29 µM	1.58 µM	3.27 µM
COc1ccc2c(c1)OC(N(C(C)=O)C(C)=O)=C(C#N)C2c1ccc(F)cc1 (configuration not stated)	2.13 µM	> 100 µM	4.19 µM	> 100 µM	0.683 µM	> 100 µM	21.6 µM	> 100 µM	2.66 µM	> 100 µM	4.93 µM	> 100 µM	1.7 µM	> 100 µM	0.496 µM	2.53 µM	3.18 µM	27.1 µM	2.4 µM	> 100 µM
CC[C@H](CC#N)OC(=O)N[C@@H](C)c1cccc(NC(=O)Nc2ccc(-c3cnco3)c(OC)c2)c1	< 0.023 µM	35.8 µM	0.446 µM	10.3 µM	0.119 µM	> 51.4 µM	0.161 µM	31.2 µM	0.0403 µM	13.8 µM	0.142 µM	51.6 µM	0.0856 µM	36.8 µM	0.184 µM	38.5 µM	0.152 µM	19.4 µM	0.204 µM	> 89.5 µM
COc1ccc2c3c(c(=O)n(C)c2c1OC)C=CC(C)(C)O3	–	88.3 µM	–	63.3 µM	–	27.9 µM	–	> 100 µM	–	54.7 µM	–	> 100 µM	–	> 100 µM	–	29.8 µM	–	29.3 µM	–	54 µM
COc1cc[nH]c1/C=C1\C(=O)Nc2ccc(F)c(I)c21	> 25 µM	> 25 µM	> 25 µM	> 25 µM	> 25 µM	> 25 µM	> 25 µM	> 25 µM	> 25 µM	> 25 µM	> 25 µM	> 25 µM	> 25 µM	> 25 µM	> 25 µM	> 25 µM	> 25 µM	> 25 µM	> 25 µM	> 25 µM
CCc1cc(O)c(Cl)c(C)c1Cl	–	50.1 µM	–	33.2 µM	–	34.6 µM	–	42.7 µM	–	–	–	32.7 µM	–	33.2 µM	–	> 100 µM	–	42.3 µM	–	81.1 µM
CC(C)(C)c1ccc(S(=O)(=O)N[C@H]2CC[C@H]3[C@@H]4CCc5cc(OS(=O)(=O)O)ccc5[C@H]4CC[C@]23C)cc1	2.88 µM	9.25 µM	1.8 µM	4.4 µM	1.79 µM	3.59 µM	2.49 µM	6.05 µM	2.65 µM	9.55 µM	4.09 µM	13.1 µM	2.87 µM	7.81 µM	–	–	2.55 µM	7.37 µM	1.94 µM	4.26 µM
CN(C)CCOc1ccc2c(c1)C/C(=C/c1ncc([N+](=O)[O-])n1C)C2=O	–	15.1 µM	–	3.61 µM	–	3.92 µM	–	5.23 µM	–	> 22.6 µM	–	–	–	11.4 µM	–	71.7 µM	–	4.46 µM	–	8.42 µM
COc1cc(-c2cn(-c3ccc(Cl)cc3)c(C)c2C(=O)C(F)(F)F)cc(OC)c1OC	16.1 µM	> 100 µM	19.2 µM	> 100 µM	> 100 µM	> 100 µM	> 100 µM	> 100 µM	6.01 µM	> 100 µM	> 100 µM	> 100 µM	> 100 µM	> 100 µM	–	–	5.3 µM	> 100 µM	> 100 µM	> 100 µM
CC(=O)Nc1ccc2c(c1)oc(=O)c1cc(NC(C)=O)ccc12	–	–	> 100 µM	> 100 µM	> 100 µM	> 100 µM	35.6 µM	> 100 µM	18.9 µM	> 100 µM	52.4 µM	> 100 µM	> 100 µM	> 100 µM	41.3 µM	> 100 µM	52.8 µM	> 100 µM	48.5 µM	> 100 µM
